Assay results from patent publication US12617783B2, “Heterocyclic GLP-1R agonists” (BIOMEA FUSION, INC., priority 2024, dated 2026).
Like-named read-outs stand apart in the source and are kept apart here.

Molecular target: T1, human GLP-1R (Homo sapiens, UniProt P43220)
T1 construct: host or cells: HEK293
Experiment: GLP-1R cAMP assay (Example B1a, HTRF, 30 min at room temperature)
Assay type: cell-based
In short: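 Competitive HTRF read-out of cAMP after 30 min room-temperature stimulation, BETP absent, of human GLP-1R-HEK293 cells (1,000/well) in HEPES buffer with 500 μM IBMX and 0.1% BSA. Activation normalised to GLP-1(7-37) positive control. EC50 from 4-parameter non-linear regression.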

[1] = cAMP accumulation in HEK293 expressing human GLP-1R, no BETP, 30 min room temperature (Method B1a, compounds ID 1-609), Table 1, read-out: EC50

T1 sequence (P43220 24-463): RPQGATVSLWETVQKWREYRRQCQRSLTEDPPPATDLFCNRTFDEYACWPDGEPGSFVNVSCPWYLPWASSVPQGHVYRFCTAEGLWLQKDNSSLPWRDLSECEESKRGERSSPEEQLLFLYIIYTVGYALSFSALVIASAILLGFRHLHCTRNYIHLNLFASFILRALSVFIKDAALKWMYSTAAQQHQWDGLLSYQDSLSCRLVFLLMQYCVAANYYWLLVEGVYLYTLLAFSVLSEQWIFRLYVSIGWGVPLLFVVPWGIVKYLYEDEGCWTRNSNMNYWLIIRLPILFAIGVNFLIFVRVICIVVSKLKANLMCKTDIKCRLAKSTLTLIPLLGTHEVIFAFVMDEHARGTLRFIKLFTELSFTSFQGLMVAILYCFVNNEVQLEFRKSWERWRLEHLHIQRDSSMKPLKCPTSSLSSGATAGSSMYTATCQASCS

Row | Structure (SMILES) | EC50 [1] | further results
1 | Cc1cc(-n2nc3c(c2-n2ccn(-c4ccc5c(cnn5C)c4F)c2=O)[C@@H]2CC[C@H](C3)N2C(=O)c2cc3c(=O)n([C@H]4CCOC(C)(C)C4)ccc3n2[C@@]2(c3noc(=O)[nH]3)C[C@@H]2C)cc(C)c1F [Compound 238, 3-[(1S,2S)-1-[5-[(4S)-2,2-dimethyltetrahydropyran-4-yl]-2-[(1S,8R)-4-(4-fluoro-3,5-dimethyl-phenyl)-3-[3-(4-fluoro-1-methyl-indazol-5-yl)-2-oxo-imidazol-1-yl]-4,5,11-triazatricyclo[6.2.1.02,6]undeca-2,5-diene-11-carbonyl]-4-oxo-pyrrolo[3,2-c]pyridin-1-yl]-2-methyl-cyclopropyl]-4H-1,2,4-oxadiazol-5-one] | > 10000 nM | –
2 | Cc1cc(-n2nc3c(c2-n2ccn(-c4ccc5cnncc5c4)c2=O)[C@@H]2CC[C@H](C3)N2C(=O)c2cc3cc([C@H]4CCOC(C)(C)C4)ccc3n2[C@@]2(c3noc(=O)[nH]3)C[C@@H]2C)cc(C)c1F [Compound 127, 3-((1S,2S)-1-(5-((S)-2,2-dimethyltetrahydro-2H-pyran-4-yl)-2-((4S,7R)-2-(4-fluoro-3,5-dimethylphenyl)-3-(2-oxo-3-(phthalazin-6-yl)-2,3-dihydro-1H-imidazol-1-yl)-2,4,5,6,7,8-hexahydro-4,7-epiminocyclohepta [c]pyrazole-9-carbonyl)-1H-indol-1-yl)-2-methylcyclopropyl)-1,2,4-oxadiazol-5 (4H)-one] | 381 nM | –
3 | Cc1cc(-n2nc3c(c2-n2ccn(-c4ccc5c(cnn5C)c4F)c2=O)[C@@H]2CC[C@H](C3)N2C(=O)c2cc3nc(C4CCOC(C)(C)C4)sc3cc2C2(c3noc(=O)[nH]3)CC2)cc(C)c1F (stereo partly drawn) [Compound 129, 3-[1-[2-(2,2-dimethyltetrahydropyran-4-yl)-5-[(1S,8R)-4-(4-fluoro-3,5-dimethyl-phenyl)-3-[3-(4-fluoro-1-methyl-indazol-5-yl)-2-oxo-imidazol-1-yl]-4,5,11-triazatricyclo[6.2.1.02,6]undeca-2,5-diene-11-carbonyl]-1,3-benzothiazol-6-yl]cyclopropyl]-4H-1,2,4-oxadiazol-5-one] | > 10000 nM | –
4 | Cc1cc(-n2nc3c(c2-n2ccn(-c4ccc5cnncc5c4)c2=O)[C@@H]2CC[C@H](C3)N2C(=O)c2cc3cc([C@H]4CCOC(C)(C)C4)ccc3n2C2(c3noc(=O)[nH]3)CC2)cc(C)c1F [Compound 124, 3-(1-(5-((S)-2,2-dimethyltetrahydro-2H-pyran-4-yl)-2-((4S,7R)-2-(4-fluoro-3,5-dimethylphenyl)-3-(2-oxo-3-(phthalazin-6-yl)-2,3-dihydro-1H-imidazol-1-yl)-2,4,5,6,7,8-hexahydro-4,7-epiminocyclohepta [c]pyrazole-9-carbonyl)-1H-indol-1-yl)cyclopropyl)-1,2,4-oxadiazol-5 (4H)-one] | 1380 nM | –
5 | Cc1cc(-n2nc3c(c2-n2ccn(-c4ccc5c(cnn5C)c4F)c2=O)[C@@H]2CC[C@H]([C@@H]3F)N2C(=O)c2cc3cc([C@H]4CCOC(C)(C)C4)ccc3n2[C@@]2(c3noc(=O)[nH]3)C[C@@H]2C)cc(C)c1F [Compound 515, 3-[(1S,2S)-1-[5-[(4S)-2,2-dimethyltetrahydropyran-4-yl]-2-[(1S,7S,8R)-7-fluoro-4-(4-fluoro-3,5-dimethyl-phenyl)-3-[3-(4-fluoro-1-methyl-indazol-5-yl)-2-oxo-imidazol-1-yl]-4,5,11-triazatricyclo[6.2.1.02,6]undeca-2,5-diene-11-carbonyl]indol-1-yl]-2-methyl-cyclopropyl]-4H-1,2,4-oxadiazol-5-one] | 120 nM | EC50 Ratio (Table 1d, potency ratio of stereoisomer pair (less potent / more potent isomer)): >44; EC50 (Table 1d, stereoisomer pairs, read-out: EC50): 120 nM; EC50 (text to Table 1d, bridge atoms configured into the plane or away from the reader, read-out: potency (EC50)): < 1000 nM
6 | CC(=O)NC[C@]1(n2c(C(=O)N3[C@@H]4CC[C@H]3c3c(nn(-c5cc(C)c(F)c(C)c5)c3-n3ccn(-c5ccc6c(cnn6C)c5F)c3=O)C4)cc3cc([C@H]4CCOC(C)(C)C4)ccc32)C[C@@H]1C [Compound 243, N-[[(1S,2S)-1-[5-[(4S)-2,2-dimethyltetrahydropyran-4-yl]-2-[(1S,8R)-4-(4-fluoro-3,5-dimethyl-phenyl)-3-[3-(4-fluoro-1-methyl-indazol-5-yl)-2-oxo-imidazol-1-yl]-4,5,11-triazatricyclo[6.2.1.02,6]undeca-2,5-diene-11-carbonyl]indol-1-yl]-2-methyl-cyclopropyl]methyl]acetamide] | 757 nM | –
7 | Cc1cc(-n2nc3c(c2-n2ccn(-c4ccc5c(cnn5C)c4F)c2=O)[C@@H]2CC[C@H](C3)N2C(=O)c2cc3c(=O)n(C4CCOC(C)(C)C4)ccc3n2[C@@]2(c3noc(=O)[nH]3)C[C@@H]2C)cc(C)c1F (stereo partly drawn) [Compound 231, 3-[(1S,2S)-1-[5-(2,2-dimethyltetrahydropyran-4-yl)-2-[(1S,8R)-4-(4-fluoro-3,5-dimethyl-phenyl)-3-[3-(4-fluoro-1-methyl-indazol-5-yl)-2-oxo-imidazol-1-yl]-4,5,11-triazatricyclo[6.2.1.02,6]undeca-2,5-diene-11-carbonyl]-4-oxo-pyrrolo[3,2-c]pyridin-1-yl]-2-methyl-cyclopropyl]-4H-1,2,4-oxadiazol-5-one] | > 10000 nM | –

Continued, in another order:

Row | EC50 [1] | Structure (SMILES) | further results
8 | ≥ 10000 nM | Cc1cc(-n2nc3c(c2-n2ccn(-c4ccc5c(cnn5C)c4F)c2=O)[C@H]2CC[C@@H](C3)N2C(=O)c2cc3cc([C@@H]4CCOC5(CC5)C4)ccc3n2[C@]2(c3noc(=O)[nH]3)C[C@@H]2C)cc(C)c1F [Compound 530, 3-[(1R,2S)-1-[2-[(1R,8S)-4-(4-fluoro-3,5-dimethyl-phenyl)-3-[3-(4-fluoro-1-methyl-indazol-5-yl)-2-oxo-imidazol-1-yl]-4,5,11-triazatricyclo[6.2.1.02,6]undeca-2,5-diene-11-carbonyl]-5-[(7R)-4-oxaspiro[2.5]octan-7-yl]indol-1-yl]-2-methyl-cyclopropyl]-4H-1,2,4-oxadiazol-5-one] | –
9 | > 10000 nM | Cc1cc(-n2nc3c(c2N2C(=O)CN(c4ccc5c(cnn5C)c4F)C2=O)[C@H]2CC[C@@H](C3)N2C(=O)c2cc3cc([C@H]4CCOC(C)(C)C4)ccc3n2[C@@]2(c3noc(=O)[nH]3)C[C@@H]2C)cc(C)c1F [Compound 234, 3-[(1R,8S)-11-[5-[(4S)-2,2-dimethyltetrahydropyran-4-yl]-1-[(1S,2S)-2-methyl-1-(5-oxo-4H-1,2,4-oxadiazol-3-yl)cyclopropyl]indole-2-carbonyl]-4-(4-fluoro-3,5-dimethyl-phenyl)-4,5,11-triazatricyclo[6.2.1.02,6]undeca-2,5-dien-3-yl]-1-(4-fluoro-1-methyl-indazol-5-yl)imidazolidine-2,4-dione] | –
10 | 197 nM | Cc1cc(-n2nc3c(c2-n2ccn(-c4ccc5c(cnn5C)c4Cl)c2=O)[C@@H]2CC[C@H](C3)N2C(=O)c2cc3cc([C@H]4CCOC(C)(C)C4)ccc3n2[C@@]2(c3noc(=O)[nH]3)C[C@@H]2C)cc(C)c1F [Compound 308, 3-((1S,2S)-1-(2-((4S,7R)-3-(3-(4-chloro-1-methyl-1H-indazol-5-yl)-2-oxo-2,3-dihydro-1H-imidazol-1-yl)-2-(4-fluoro-3,5-dimethylphenyl)-2,4,5,6,7,8-hexahydro-4,7-epiminocyclohepta [c]pyrazole-9-carbonyl)-5-((S)-2,2-dimethyltetrahydro-2H-pyran-4-yl)-1H-indol-1-yl)-2-methylcyclopropyl)-1,2,4-oxadiazol-5(4H)-one] | –
11 | ≥ 10000 nM | Cc1cc(-n2nc3c(c2-n2ccn(-c4ccc5c(cnn5C)c4F)c2=O)[C@H]2CC[C@@H](C3)N2C(=O)c2cc3cc([C@@H]4CCOC5(CC5)C4)ccc3n2[C@]2(c3noc(=O)[nH]3)C[C@H]2C)cc(C)c1F [Compound 517, 3-[(1R,2R)-1-[2-[(1R,8S)-4-(4-fluoro-3,5-dimethyl-phenyl)-3-[3-(4-fluoro-1-methyl-indazol-5-yl)-2-oxo-imidazol-1-yl]-4,5,11-triazatricyclo[6.2.1.02,6]undeca-2,5-diene-11-carbonyl]-5-[(7R)-4-oxaspiro[2.5]octan-7-yl]indol-1-yl]-2-methyl-cyclopropyl]-4H-1,2,4-oxadiazol-5-one] | –
12 | 361 nM | Cc1cc(-n2nc3c(c2-n2ccn(-c4ccc5c(cnn5C)c4F)c2=O)[C@@H]2CC[C@H](C3)N2C(=O)c2cc3cc(C4CCOC5(CCC5)C4)ccc3n2[C@@]2(c3noc(=O)[nH]3)C[C@@H]2C)cc(C)c1F (stereo partly drawn) [Compound 415, 3-((1S,2S)-1-(2-((4S,7R)-3-(3-(4-fluoro-1-methyl-1H-indazol-5-yl)-2-oxo-2,3-dihydro-1H-imidazol-1-yl)-2-(4-fluoro-3,5-dimethylphenyl)-2,4,5,6,7,8-hexahydro-4,7-epiminocyclohepta [c]pyrazole-9-carbonyl)-5-(5-oxaspiro[3.5]nonan-8-yl)-1H-indol-1-yl)-2-methylcyclopropyl)-1,2,4-oxadiazol-5 (4H)-one] | –
13 | ≥ 10000 nM | Cc1cc(-n2nc3c(c2-n2ccn(-c4ccc5c(cnn5C)c4F)c2=O)[C@H]2CC[C@@H](C3)N2C(=O)c2cc3cc([C@H]4CCOC5(CC5)C4)ccc3n2[C@@]2(c3noc(=O)[nH]3)C[C@H]2C)cc(C)c1F [Compound 539, 3-((1S,2R)-1-(2-((4R,7S)-3-(3-(4-fluoro-1-methyl-1H-indazol-5-yl)-2-oxo-2,3-dihydro-1H-imidazol-1-yl)-2-(4-fluoro-3,5-dimethylphenyl)-2,4,5,6,7,8-hexahydro-4,7-epiminocyclohepta [c]pyrazole-9-carbonyl)-5-((S)-4-oxaspiro[2.5]octan-7-yl)-1H-indol-1-yl)-2-methylcyclopropyl)-1,2,4-oxadiazol-5 (4H)-one] | –
14 | ≥ 10000 nM | Cc1cc(-n2nc3c(c2-n2ccn(-c4ccc5c(cnn5C)c4F)c2=O)[C@@H]2CC[C@H](C3)N2C(=O)c2cc3cc([C@@H]4CCOC5(CC5)C4)ccc3n2[C@]2(c3noc(=O)[nH]3)C[C@@H]2C)cc(C)c1F [Compound 529, 3-[(1R,2S)-1-[2-[(1S,8R)-4-(4-fluoro-3,5-dimethyl-phenyl)-3-[3-(4-fluoro-1-methyl-indazol-5-yl)-2-oxo-imidazol-1-yl]-4,5,11-triazatricyclo[6.2.1.02,6]undeca-2,5-diene-11-carbonyl]-5-[(7R)-4-oxaspiro[2.5]octan-7-yl]indol-1-yl]-2-methyl-cyclopropyl]-4H-1,2,4-oxadiazol-5-one] | –
